Reference: ChEMBL document CHEMBL1137137, “A novel series of 2-pyridyl-containing compounds as lysophosphatidic acid receptor antagonists: development of a nonhydrolyzable LPA3 receptor-selective antagonist” (Bioorg Med Chem Lett, 2004)

Key:
[1] = target: T1, Lysophosphatidic acid receptor 3 (Homo sapiens, UniProt Q9UBY5); assay: Antagonist activity at Lysophosphatidic acid 3 (LPA3) receptor
T1 sequence (Q9UBY5 whole entry): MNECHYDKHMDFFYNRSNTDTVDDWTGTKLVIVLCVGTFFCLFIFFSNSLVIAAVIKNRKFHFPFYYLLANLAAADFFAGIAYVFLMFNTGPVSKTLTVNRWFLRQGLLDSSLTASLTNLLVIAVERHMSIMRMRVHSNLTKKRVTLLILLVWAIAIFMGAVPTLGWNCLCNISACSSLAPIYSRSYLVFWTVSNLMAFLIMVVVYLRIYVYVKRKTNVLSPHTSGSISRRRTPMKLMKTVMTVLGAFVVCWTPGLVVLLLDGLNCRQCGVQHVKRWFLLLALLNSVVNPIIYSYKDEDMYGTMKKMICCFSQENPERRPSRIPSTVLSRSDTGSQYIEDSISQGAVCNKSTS

[2] = target: T2, Lysophosphatidic acid receptor 1 (Homo sapiens, UniProt Q92633); assay: Inhibitory concentration against Lysophosphatidic acid 1 (LPA1) receptor
T2 sequence (Q92633 whole entry): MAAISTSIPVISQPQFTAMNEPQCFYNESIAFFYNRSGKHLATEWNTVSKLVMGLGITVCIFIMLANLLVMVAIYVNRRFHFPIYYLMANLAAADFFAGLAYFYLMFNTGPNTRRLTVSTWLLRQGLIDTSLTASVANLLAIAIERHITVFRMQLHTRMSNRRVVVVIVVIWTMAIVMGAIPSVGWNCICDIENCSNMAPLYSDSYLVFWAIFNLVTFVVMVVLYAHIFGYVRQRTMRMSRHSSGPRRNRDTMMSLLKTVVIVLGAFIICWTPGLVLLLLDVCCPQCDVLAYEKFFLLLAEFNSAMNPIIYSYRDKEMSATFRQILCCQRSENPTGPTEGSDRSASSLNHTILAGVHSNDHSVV

[3] = target: T2, Lysophosphatidic acid receptor 1; assay: Binding affinity towards Lysophosphatidic acid 1 (LPA1) receptor

## CCCCCCCC/C=C\CCCCCCCC(=O)N[C@@H](Cc1ccc(OCc2ccccc2)cc1)CC(O)P(=O)(O)O (stereo partly specified)
[1]
  IC50: 232 nM
[2]
  IC50: 4230 nM

## CCCCCCCC/C=C\CCCCCCCC(=O)N[C@H](CCP(=O)(O)O)Cc1ccc(OCc2ccccn2)cc1
[1]
  IC50: > 10000 nM
[2]
  IC50: > 10000 nM

## CCCCCCCC/C=C\CCCCCCCC(=O)N[C@H](COP(=O)(O)O)Cc1ccc(OCc2ncc(C)c(OC)c2C)cc1
[1]
  IC50: 561 nM
[2]
  IC50: 3690 nM

## CCCCCCCC/C=C\CCCCCCCC(=O)N[C@@H](CCP(=O)(O)O)Cc1ccc(OCc2ccccn2)cc1
[1]
  IC50: > 10000 nM
[2]
  IC50: > 10000 nM

## CCCCCCCC/C=C\CCCCCCCC(=O)N[C@H](COP(=O)(O)O)Cc1ccc(OCc2cc(OC)c3ccccc3n2)cc1
[1]
  IC50: 2600 nM
[2]
  IC50: > 10000 nM

## CCCCCCCC/C=C\CCCCCCCC(=O)N[C@@H](COP(=O)(O)O)Cc1ccc(OCc2cc(OCCOC)ccn2)cc1
[1]
  IC50: 423 nM
[3]
  Ki: 35 nM
[2]
  IC50: 114 nM

## CCCCCCCC/C=C\CCCCCCCC(=O)N[C@@H](CCP(=O)(O)O)Cc1ccc(OCc2ncc(C)c(OC)c2C)cc1
[1]
  IC50: 150 nM
[2]
  IC50: > 10000 nM

## CCCCCCCC/C=C\CCCCCCCC(=O)N[C@@H](COP(=O)(O)O)Cc1ccc(OCc2cc(OCC)ccn2)cc1
[1]
  IC50: 39 nM
[3]
  Ki: 26 nM
[2]
  IC50: 143 nM

## CCCCCCCC/C=C\CCCCCCCC(=O)N[C@@H](COP(=O)(O)O)Cc1ccc(OCc2cc(OCC(F)(F)F)ccn2)cc1
[1]
  IC50: 48 nM
[3]
  Ki: 19 nM
[2]
  IC50: 84 nM

## CCCCCCCC/C=C\CCCCCCCC(=O)N[C@@H](COP(=O)(O)O)Cc1ccc(OCc2cccnc2)cc1
[1]
  IC50: 1690 nM
[2]
  IC50: 992 nM

## CCCCCCCC/C=C\CCCCCCCC(=O)N[C@@H](COP(=O)(O)O)Cc1ccc(OCc2cccc(OC)n2)cc1
[1]
  IC50: 455 nM
[2]
  IC50: 2840 nM

## CCCCCCCC/C=C\CCCCCCCC(=O)N[C@@H](COP(=O)(O)O)Cc1ccc(OCc2cc(OC)ccn2)cc1
[1]
  IC50: 102 nM
[2]
  IC50: 6250 nM

## CCCCCCCC/C=C\CCCCCCCC(=O)N[C@@H](COP(=O)(O)O)Cc1ccc(OCc2cc(OCCC)ccn2)cc1
[1]
  IC50: 1660 nM
[3]
  Ki: 64 nM
[2]
  IC50: 141 nM

## CCCCCCCC/C=C\CCCCCCCC(=O)N[C@H](COP(=O)(O)O)Cc1ccc(OCc2ccccn2)cc1
[1]
  IC50: 940 nM

## CCCCCCCCCCCCCCCC(=O)N[C@H](CCP(=O)(O)O)Cc1ccc(OCc2ccccn2)cc1
[1]
  IC50: 1050 nM
[2]
  IC50: > 10000 nM

## CCCCCCCC/C=C\CCCCCCCC(=O)N[C@@H](COP(=O)(O)O)Cc1ccc(OCc2ccc3ccccc3n2)cc1
[1]
  IC50: 533 nM
[2]
  IC50: 1430 nM

## CCCCCCCC/C=C\CCCCCCCC(=O)N[C@H](COP(=O)(O)O)Cc1ccc(OCc2ccncc2)cc1
[1]
  IC50: 6960 nM
[2]
  IC50: > 10000 nM

## CCCCCCCC/C=C\CCCCCCCC(=O)N[C@@H](COP(=O)(O)O)Cc1ccc(OCc2ccncc2)cc1
[1]
  IC50: 2080 nM
[2]
  IC50: 735 nM

## CCCCCCCC/C=C\CCCCCCCC(=O)N[C@H](COP(=O)(O)O)Cc1ccc(OCc2cccnc2)cc1
[1]
  IC50: 6240 nM
[2]
  IC50: 4500 nM

## CCCCCCCC/C=C\CCCCCCCC(=O)N[C@@H](COP(=O)(O)O)Cc1ccc(OCc2cc(OC)c3ccccc3n2)cc1
[1]
  IC50: 1160 nM
[2]
  IC50: 962 nM

## CCCCCCCC/C=C\CCCCCCCC(=O)N[C@@H](COP(=O)(O)O)Cc1ccc(OCc2ncc(C)c(OC)c2C)cc1
[1]
  IC50: 39 nM
[3]
  Ki: 28 nM
[2]
  IC50: 62 nM

## CCCCCCCC/C=C\CCCCCCCC(=O)N[C@H](CCP(=O)(O)O)Cc1ccc(OCc2ncc(C)c(OC)c2C)cc1
[1]
  IC50: 4000 nM
[2]
  IC50: > 10000 nM

## CCCCCCCC/C=C\CCCCCCCC(=O)N[C@@H](COP(=O)(O)O)Cc1ccc(OCc2ccccn2)cc1
[1]
  IC50: 175 nM

## CCCCCCCC/C=C\CCCCCCCC(=O)N[C@H](COP(=O)(O)O)Cc1ccc(OCc2cccc(OC)n2)cc1
[1]
  IC50: 1090 nM
[2]
  IC50: > 10000 nM
